Data published in ChEMBL document CHEMBL1125758, “(Acyloxy)alkyl carbamate prodrugs of norfloxacin” (J Med Chem, 1991).
In brackets after ≈: the same amount, converted by molar mass.

Columns and labels:
[1] = Solubility in citrate buffer (0.1 M) at 25 degree centigrade(pH 5); type: physicochemical; conditions: for solubility: citrate buffer, read-out: S
[2] = Half life in a medium of dog serum.; type: ADME, organism-based, Canis lupus familiaris
[3] = Solubility in bicarbonate buffer (0.05 M) at 25 degree centigrade(pH 8.5); type: physicochemical; conditions: read-out: S
[4] = Solubility in phosphate buffer (0.1 M) at 25 degree centigrade(pH 7.4); type: physicochemical
[5] = Half life in a medium of rat serum.; type: ADME, organism-based
Serratia marcescens = experiment: Antibacterial activity against Ser. marcescens (2840); type: functional
[6] = Half life in a medium of rat intestinal homogenate.; type: ADME
Escherichia coli [7] = experiment: Antibacterial activity against Escherichia coli (2891); type: functional
Pseudomonas aeruginosa [8] = experiment: Antibacterial activity against Ps. aeruginoa(4279); type: functional
Morganella morganii [9] = experiment: Antibacterial activity against Prot. morganii SmR(2833); type: functional
Rhesus monkey [10] = experiment: (§1) Urine conc 0-5 hours following 25 mg/kg dose; type: functional, Macaca mulatta
Pseudomonas aeruginosa [11] = experiment: Antibacterial activity against Ps. aeruginosa RPL11+(3350); type: functional
Escherichia coli [12] = experiment: Antibacterial activity against Escherichia coli DC2(4353); type: functional
Proteus vulgaris [13] = experiment: Antibacterial activity against Prot. vulgaris(2829); type: functional
Klebsiella pneumoniae [14] = experiment: Antibacterial activity against Klebsiella pneumoniae (4005); type: functional
Staphylococcus aureus [15] = experiment: Antibacterial activity against Staphylococcus aureus (2865); type: functional
Streptococcus sp. = experiment: Antibacterial activity against Strep. Faecalis (2864); type: functional
Pseudomonas aeruginosa [16] = experiment: Antibacterial activity against Ps. aeruginoa(2835); type: functional
Enterobacter cloacae [17] = experiment: Antibacterial activity against Ent. cloacae P99-(2647); type: functional
[18] = Half life in a medium of phosphate buffer in pH 7.4; type: ADME
Staphylococcus aureus [19] = experiment: Antibacterial activity against Staphylococcus aureus GmR Meth(4310); type: functional
Escherichia coli [20] = experiment: Antibacterial activity against Escherichia coli TEM 2+ DC2(4352); type: functional
[21] = Half life in a medium of human serum.; type: ADME, organism-based
Escherichia coli [22] = experiment: Antibacterial activity against Escherichia coli TEM 2+(4351); type: functional
Klebsiella aerogenes [23] = experiment: Antibacterial activity against Ent. aerogenes(2828); type: functional
Monkey = experiment: % dose recovered in urine; type: functional, Cercopithecidae
Rhesus monkey [24] = experiment: (§2) Serum conc at 3 hours following 25 mg/kg dose; type: functional, Macaca mulatta
Klebsiella pneumoniae [25] = experiment: Antibacterial activity against Klebsiella pneumoniae K1+(4354); type: functional
Salmonella typhimurium = experiment: Antibacterial activity against Sal. Typhimurium (3860); type: functional, Salmonella enterica subsp. enterica serovar Typhimurium; conditions: Salmonella enterica
[26] = Solubility in water at 25 degree Centigrade; type: physicochemical; conditions: read-out: S
Staphylococcus aureus [27] = experiment: Antibacterial activity against Staphylococcus aureus (2868); type: functional
Rhesus monkey [28] = experiment: Urine conc 0-24 hours following 25mg/kg dose; type: functional, Macaca mulatta
Enterobacter cloacae [29] = experiment: Antibacterial activity against Ent. cloacae 99+(2646); type: functional; conditions: P99
Proteus mirabilis [30] = experiment: Antibacterial activity against Prot. mirabilis GmR(2830); type: functional
Pseudomonas aeruginosa [31] = experiment: Antibacterial activity against Ps. aeruginosa (2835); type: functional
Klebsiella aerogenes [32] = experiment: Antibacterial activity against Ent. aerogenes (2828); type: functional
Escherichia coli [33] = experiment: Antibacterial activity against Escherichia coli TEM 2+ (4351); type: functional
Staphylococcus aureus [34] = experiment: Antibacterial activity against Staphylococcus aureus GmR Meth (4310); type: functional
[35] = as §2; type: ADME, organism-based, Macaca mulatta; set-up: dose 25 mg/kg; conditions: rhesus monkey, read-out: Concentration_plasma
Escherichia coli [36] = experiment: Antibacterial activity against Escherichia coli DC2 (4353); type: functional
Enterobacter cloacae [37] = experiment: Antibacterial activity against Ent. cloacae P99- (2647); type: functional
Pseudomonas aeruginosa [38] = experiment: Antibacterial activity against Ps. aeruginosa (4279); type: functional
Klebsiella pneumoniae [39] = experiment: Antibacterial activity against Klebsiella pneumoniae K1+ (4354); type: functional
Enterobacter cloacae [40] = experiment: Antibacterial activity against Ent. cloacae 99+ (2646); type: functional; conditions: P99
Enterococcus faecalis = experiment: Antibacterial activity against Strep. faecalis (2864); type: functional
Morganella morganii [41] = experiment: Antibacterial activity against Prot. morganii SmR (2833); type: functional
[42] = as §1; type: ADME, organism-based, Macaca mulatta; set-up: dose 25 mg/kg; conditions: rhesus monkey, in vivo
Pseudomonas aeruginosa [43] = experiment: Antibacterial activity against Ps. aeruginosa RPL11+ (3350); type: functional
Escherichia coli [44] = experiment: Antibacterial activity against Escherichia coli TEM 2+ DC2 (4352); type: functional
Proteus mirabilis [45] = experiment: Antibacterial activity against Prot. mirabilis GmR (2830); type: functional
[46] = Urine conc 0-24 hours following 25 mg/kg dose; type: ADME, organism-based, Macaca mulatta; set-up: dose 25 mg/kg; conditions: rhesus monkey, in vivo
Proteus vulgaris [47] = experiment: Antibacterial activity against Prot. vulgaris (2829); type: functional

SMILES: CCn1cc(C(=O)O)c(=O)c2cc(F)c(N3CCN(C(=O)OC(C)OC(C)=O)CC3)cc21 (centres undefined)
- solubility [1]: 30 µg/mL (≈ 66.8 µM)
- half-life [2]: 6 min
- solubility [3]: 150 µg/mL (≈ 334 µM)
- solubility [4]: 60 µg/mL (≈ 134 µM)
- half-life [5]: 1.5 min

SMILES: CCn1cc(C(=O)O)c(=O)c2cc(F)c(N3CCN(C(=O)OCOC(C)=O)CC3)cc21
- MIC (Serratia marcescens): > 128 µg/mL
- half-life [6]: 2.6 min
- MIC (Escherichia coli [7]): 128 µg/mL (≈ 294 µM)
- MIC (Pseudomonas aeruginosa [8]): > 128 µg/mL
- MIC (Morganella morganii [9]): 8 µg/mL (≈ 18.4 µM)
- Concentration_urine (Rhesus monkey [10]): 25.03 µg/mL
- MIC (Pseudomonas aeruginosa [11]): > 128 µg/mL
- MIC (Escherichia coli [12]): > 128 µg/mL
- MIC (Proteus vulgaris [13]): > 128 µg/mL
- MIC (Klebsiella pneumoniae [14]): 32 µg/mL (≈ 73.5 µM)
- MIC (Staphylococcus aureus [15]): 2 µg/mL (≈ 4.59 µM)
- MIC (Streptococcus sp.): > 128 µg/mL
- MIC (Pseudomonas aeruginosa [16]): > 128 µg/mL
- solubility [1]: 5 µg/mL (≈ 11.5 µM)
- MIC (Enterobacter cloacae [17]): > 128 µg/mL
- half-life [18]: 128 h
- MIC (Staphylococcus aureus [19]): 2 µg/mL (≈ 4.59 µM)
- half-life [2]: 6 min
- MIC (Escherichia coli [20]): > 128 µg/mL
- half-life [21]: 116 min
- solubility [3]: 410 µg/mL (≈ 942 µM)
- MIC (Escherichia coli [22]): > 128 µg/mL
- MIC (Klebsiella aerogenes [23]): > 128 µg/mL
- Dose (Monkey): 7.23%
- solubility [4]: 50 µg/mL (≈ 115 µM)
- Concentration_plasma (Rhesus monkey [24]): 0.36 µg/mL
- half-life [5]: 1.5 min
- MIC (Klebsiella pneumoniae [25]): > 128 µg/mL
- MIC (Salmonella typhimurium): > 128 µg/mL
- solubility [26]: 60 µg/mL (≈ 138 µM)
- MIC (Staphylococcus aureus [27]): 1 µg/mL (≈ 2.3 µM)
- Concentration_urine (Rhesus monkey [28]): 21.97 µg/mL
- MIC (Enterobacter cloacae [29]): > 128 µg/mL
- MIC (Proteus mirabilis [30]): > 128 µg/mL

SMILES: CCn1cc(C(=O)O)c(=O)c2cc(F)c(N3CCNCC3)cc21 [NORFLOXACIN]
- MIC (Serratia marcescens): 4 µg/mL (≈ 12.5 µM)
- MIC (Pseudomonas aeruginosa [31]): 1 µg/mL (≈ 3.13 µM)
- MIC (Klebsiella aerogenes [32]): 0.5 µg/mL (≈ 1.57 µM)
- MIC (Escherichia coli [7]): 0.06 µg/mL (≈ 0.188 µM)
- MIC (Escherichia coli [33]): 0.03 µg/mL (≈ 0.0939 µM)
- MIC (Escherichia coli [33]; Escherichia coli, read-out: MIC): 0.03 µg/mL (≈ 0.0939 µM)
- MIC (Staphylococcus aureus [34]): 1 µg/mL (≈ 3.13 µM)
- MIC (Klebsiella pneumoniae [14]): 0.06 µg/mL (≈ 0.188 µM)
- MIC (Staphylococcus aureus [15]): 0.25 µg/mL (≈ 0.783 µM)
- concentration at 3 h [35]: 760 ng/mL
- MIC (Escherichia coli [36]): 0.5 µg/mL (≈ 1.57 µM)
- S ([1]; buffer): 8 mg/mL
- MIC (Enterobacter cloacae [37]): 0.25 µg/mL (≈ 0.783 µM)
- MIC (Pseudomonas aeruginosa [38]): 1 µg/mL (≈ 3.13 µM)
- solubility [3]: 210 µg/mL (≈ 658 µM)
- MIC (Klebsiella pneumoniae [39]): 8 µg/mL (≈ 25.1 µM)
- MIC (Enterobacter cloacae [40]): 1 µg/mL (≈ 3.13 µM)
- MIC (Enterococcus faecalis): 8 µg/mL (≈ 25.1 µM)
- Dose (Monkey): 16.3%
- solubility [4]: 200 µg/mL (≈ 626 µM)
- MIC (Morganella morganii [41]): 0.06 µg/mL (≈ 0.188 µM)
- Concentration_urine [42]: 175860 ng/mL
- MIC (Salmonella typhimurium): 0.5 µg/mL (≈ 1.57 µM)
- solubility [26]: 190 µg/mL (≈ 595 µM)
- MIC (Staphylococcus aureus [27]): 1 µg/mL (≈ 3.13 µM)
- MIC (Pseudomonas aeruginosa [43]): 1 µg/mL (≈ 3.13 µM)
- MIC (Escherichia coli [44]): 0.5 µg/mL (≈ 1.57 µM)
- MIC (Proteus mirabilis [45]): 0.06 µg/mL (≈ 0.188 µM)
- Concentration_urine [46]: 33780 ng/mL
- MIC (Proteus vulgaris [47]): 0.06 µg/mL (≈ 0.188 µM)
